# Source: the SangsterLogP compilation
row,Structure (SMILES),logP
1,CO[C@H]1CCCC[C@@]1(c1ccccc1)N1CCCCC1,4.73
2,C[C@H]1CCC[C@](c2ccccc2)(N2CCCCC2)C1,5.86
3,CO[C@@H]1CCCC[C@]1(c1cccs1)N1CCCCC1,4.89
4,C[C@H]1CCCC[C@@]1(c1cccs1)N1CCCCC1,7.29
5,c1csc(C2(N3CCCCC3)CCCCC2)c1,6.02
6,C[C@H]1CCCC[C@@]1(c1ccccc1)N1CCCCC1,6.75
7,CC(C)(C)C1CCC(c2ccccc2)(N2CCCCC2)CC1 (stereo not given),6.67
8,CC1CCC(c2ccccc2)(N2CCCCC2)CC1 (stereo not given),5.66
9,C[C@@H]1CC(C)(C)C[C@](c2ccccc2)(N2CCCCC2)C1,6.35
10,c1ccc(C2(N3CCCCC3)CCCCC2)cc1,5.74
